Patent US7932290B2, “Method for the treatment of metabolic disorders” (Wellstat Biologics Corporation, priority 2003, dated 2011)
One block for each compound: values may come before it.

What was measured:
[1] = test system: Human PPARγ LBD fusion protein; assay: Transcription activation potential, GAL4 luciferase reporter in C3A cells; assay type: cell-based
Description: (§1) Cells were seeded in 24 well plates the day prior to transfection at 5×10^4−2×10^5 cells/well, depending upon cell type. Cells were transfected using Lipofectamine 2000 reagent from Invitrogen. A total of 0.8 μg DNA/well was added to 50 μL of Optimem Reduced Serum media (serum free; Gibco). Lipofectamine 2000 was added (2.5 μL/well) to another tube containing 50 μL of Optimem media. Plasmid DNA was added at a ratio of 4:3 (reporter:activator); where appropriate, salmon sperm DNA was substituted for activator expressing plasmid. […] DNA constructs containing the mouse PPARα or PPARγ LBD fused to the GAL4 DNA binding domain were also used. The two solutions were incubated at room temperature for 5 min, and then combined. The combined solution was incubated at room temperature for approximately 30 min. Cells were washed once with PBS, and 100 μL of transfection mix added to each well. Plates were incubated at 37° C. in a 5% CO2 incubator for 4.5 hr, followed by aspiration of the transfection mix, with plates refed using EMEM complete media (supplemented with 10% FBS, 1× Glutamine). 24 hr post-transfection, plates were treated with the appropriate compounds in EMEM complete media, followed by washing once with PBS and addition of 100 μL 1× reporter lysis buffer/well (Promega) 24 hr after treatment. Plates went through one freeze/thaw cycle prior to analysis. Approximately 10 μL of lysate was added to 100 μL of firefly luciferase substrate, mixed by pipetting, and analyzed on a luminometer for 10 s using the integration function (relative luciferase units/RLU) or on a Microbeta Trilux (luciferase counts per second/LCPS). Each treatment was performed in triplicate, and in multiple, separate experiments.

[2] = molecular target: T1, Mouse PPARγ LBD fusion protein (Mus musculus, UniProt P37238); assay: as above; assay type: cell-based; settings: Table 20b
T1 sequence (P37238 238-503): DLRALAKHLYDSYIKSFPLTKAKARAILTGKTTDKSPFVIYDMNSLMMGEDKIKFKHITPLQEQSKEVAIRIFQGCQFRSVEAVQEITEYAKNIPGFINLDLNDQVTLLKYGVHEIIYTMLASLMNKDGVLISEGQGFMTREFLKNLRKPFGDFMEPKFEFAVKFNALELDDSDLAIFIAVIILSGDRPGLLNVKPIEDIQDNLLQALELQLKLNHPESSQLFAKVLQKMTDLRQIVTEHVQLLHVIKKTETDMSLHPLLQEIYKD
Description: as §1

[3] = molecular target: T2, Mouse PPARα LBD fusion protein (Mus musculus, UniProt P23204); assay: as above; assay type: cell-based; settings: Table 20a
T2 sequence (P23204 239-466): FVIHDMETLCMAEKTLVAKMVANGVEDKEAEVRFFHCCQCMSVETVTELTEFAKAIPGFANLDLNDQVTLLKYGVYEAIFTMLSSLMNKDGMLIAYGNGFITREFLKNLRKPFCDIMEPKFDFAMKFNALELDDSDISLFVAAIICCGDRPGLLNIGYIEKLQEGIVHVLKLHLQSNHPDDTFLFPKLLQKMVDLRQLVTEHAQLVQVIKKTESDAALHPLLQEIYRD
Description: (§2) Cells were seeded in 24 well plates the day prior to transfection at 5×10^4−2×10^5 cells/well, depending upon cell type. Cells were transfected using Lipofectamine 2000 reagent from Invitrogen. A total of 0.8 μg DNA/well was added to 50 μL of Optimem Reduced Serum media (serum free; Gibco). Lipofectamine 2000 was added (2.5 μL/well) to another tube containing 50 μL of Optimem media. Plasmid DNA was added at a ratio of 4:3 (reporter:activator); where appropriate, salmon sperm DNA was substituted for activator expressing plasmid. The reporter plasmid used was pFR-Luc, which has the firefly luciferase gene under the control of a GAL4 UAS ([…]) containing promoter. The activator expressing plasmids contain yeast GAL4 DNA binding domain (dbd) fusion of either human PPARα ligand binding domain (LBD; a.a. 167-468) or human PPARγ LBD (a.a. 176-479). DNA constructs containing the mouse PPARα or PPARγ LBD fused to the GAL4 DNA binding domain were also used. The two solutions were incubated at room temperature for 5 min, and then combined. The combined solution was incubated at room temperature for approximately 30 min. Cells were washed once with PBS, and 100 μL of transfection mix added to each well. Plates were incubated at 37° C. in a 5% CO2 incubator for 4.5 hr, followed by aspiration of the transfection mix, with plates refed using EMEM complete media (supplemented with 10% FBS, 1× Glutamine). 24 hr post-transfection, plates were treated with the appropriate compounds in EMEM complete media, followed by washing once with PBS and addition of 100 μL 1× reporter lysis buffer/well (Promega) 24 hr after treatment. Plates went through one freeze/thaw cycle prior to analysis. Approximately 10 μL of lysate was added to 100 μL of firefly luciferase substrate, mixed by pipetting, and analyzed on a luminometer for 10 s using the integration function (relative luciferase units/RLU) or on a Microbeta Trilux (luciferase counts per second/LCPS). Each treatment was performed in triplicate, and in multiple, separate experiments.

[4] = molecular target: T3, Human PPARα LBD fusion protein (Homo sapiens, UniProt Q07869); assay: as above; assay type: cell-based
T3 construct: a.a; 167-468)
T3 sequence (Q07869 167-468): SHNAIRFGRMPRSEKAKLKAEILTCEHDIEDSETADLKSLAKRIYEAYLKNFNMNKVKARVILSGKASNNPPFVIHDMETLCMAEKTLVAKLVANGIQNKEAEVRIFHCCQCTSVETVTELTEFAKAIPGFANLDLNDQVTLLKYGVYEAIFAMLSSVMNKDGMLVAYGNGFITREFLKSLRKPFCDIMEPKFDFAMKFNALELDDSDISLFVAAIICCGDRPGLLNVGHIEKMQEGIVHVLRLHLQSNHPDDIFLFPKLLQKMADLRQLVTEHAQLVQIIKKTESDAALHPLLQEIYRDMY
Description: as §2

db/db mice [5] = assay: Antidiabetic effects in db/db mice, Example B (2 weeks daily oral dosing); assay type: in vivo, mouse
Source text: (§3) db/db mice have a defect in leptin signaling, leading to hyperphagia, obesity and diabetes. Moreover, unlike ob/ob mice on a C57BL/6J background, db/db mice on a C57BL/KS background undergo failure of their insulin-producing pancreatic islet cells, resulting in progression from hyperinsulinemia (associated with peripheral insulin resistance) to hypoinsulinemic diabetes.
(§4) Male obese (db/db homozygote) C57BL/Ksola mice approximately 8 weeks of age, were obtained from Jackson Labs (Bar Harbor, Me.) and randomly assigned into groups of 5-7 animals such that the body weights (50-55 g) and serum glucose levels (≧300 mg/dl in fed state) were similar between groups; male lean (db/+heterozygote) mice served as cohort controls. A minimum of 7 days was allowed for adaptation after arrival. All animals were maintained under controlled temperature (23° C.), relative humidity (50±5%) and light (7:00-19:00), and allowed free access to standard chow (Formulab Diet 5008, Quality Lab Products, Elkridge, Md.) and water.
Treatment cohorts were given daily oral doses of Vehicle (1% hydroxypropylmethylcellulose), Compounds BI, CE, BT, BV, […] or Fenofibrate for 2 weeks. At the end of the treatment period 100 μl of venous blood was withdrawn in a heparinized capillary tube from the retro-orbital sinus of db/db mice for serum chemistry analysis.

db/db mice [6] = assay: Antidiabetic effects in db/db mice, Example C (17 days daily oral dosing); assay type: in vivo, mouse; settings: 300 mg/kg daily oral
Source text: as §3, with “C57BL/Ksola (db/db) mice have” for “db/db mice have”, “on a C57BLKS background undergo” for “on a C57BL/KS background undergo”
as §4, with “sorted” for “randomly assigned”, “7 animals each” for “5-7”, “(40-45” for “(50-55”, “groups.” for “groups; male lean (db/+heterozygote) mice served as cohort controls.”
Treatment cohorts were given daily oral doses of vehicle (1% hydroxypropylmethylcellulose), Compounds BI, CF, CG, or phenylacetate for 17 days. At the end of the treatment period, blood samples were collected and serum glucose and triglycerides were measured.

[7] = serum, 2 weeks daily oral, dose not given in Table 17 (see Table 16)

- transcription activation potential (luciferase) ± standard deviation ([2]; 1 μM test compound): 14.3 ± 4.5 LCPS
- transcription activation potential (luciferase) ± standard deviation ([2]; 3 μM test compound): 13.43 ± 8.5 LCPS
- transcription activation potential (luciferase) ± standard deviation ([2]; 10 μM test compound): 6.03 ± 3.75 LCPS
- transcription activation potential (luciferase) ± standard deviation ([2]; 30 μM test compound): 9.6 ± 5.46 LCPS
- transcription activation potential (luciferase) ± standard deviation ([2]; 100 μM test compound): 11.7 ± 11.7 LCPS
- transcription activation potential (luciferase) ± standard deviation ([2]; 200 μM test compound): 10.5 ± 9.2 LCPS
- transcription activation potential (luciferase) ± standard deviation ([3]; 1 μM): 9.47 ± 2.14 LCPS
- transcription activation potential (luciferase) ± standard deviation ([3]; 3 μM): 9.57 ± 2.61 LCPS
- transcription activation potential (luciferase) ± standard deviation ([3]; 10 μM): 1.17 ± 2.49 LCPS
- transcription activation potential (luciferase) ± standard deviation ([3]; 30 μM): 7.4 ± 0.23 LCPS
- transcription activation potential (luciferase) ± standard deviation ([3]; 100 μM): 6.13 ± 0.17 LCPS
- transcription activation potential (luciferase) ± standard deviation ([3]; 200 μM): 8 ± 1.88 LCPS
- transcription activation potential (luciferase) ± standard deviation ([4]; 1 μM): 14.7 ± 14.6 LCPS
- transcription activation potential (luciferase) ± standard deviation ([4]; 3 μM): 13.2 ± 5.8 LCPS
- transcription activation potential (luciferase) ± standard deviation ([4]; 10 μM): 26.2 ± 1.4 LCPS
- transcription activation potential (luciferase) ± standard deviation ([4]; 30 μM): 10.67 ± 1.2 LCPS
- transcription activation potential (luciferase) ± standard deviation ([4]; 100 μM): 6.33 ± 2.6 LCPS
- transcription activation potential (luciferase) ± standard deviation ([4]; 200 μM): 12.8 ± 3.7 LCPS
SMILES: Cc1cccc(C)c1COc1cccc(CCCC(=O)O)c1 [CE, 4-(3-(2,6-Dimethylbenzyloxy)phenyl)butyric acid]
- transcription activation potential (luciferase) ± standard deviation ([1]; 1 μM test compound): 60 ± 11.6 LCPS
- transcription activation potential (luciferase) ± standard deviation ([1]; 3 μM test compound): 73.3 ± 30.9 LCPS
- transcription activation potential (luciferase) ± standard deviation ([1]; 10 μM test compound): 57.3 ± 22.6 LCPS
- transcription activation potential (luciferase) ± standard deviation ([1]; 30 μM test compound): 28.5 ± 16.4 LCPS
- transcription activation potential (luciferase) ± standard deviation ([1]; 100 μM test compound): 37.7 ± 23.4 LCPS
- transcription activation potential (luciferase) ± standard deviation ([1]; 200 μM test compound): 12.3 ± 4.8 LCPS
- Glucose (% of Control) (db/db mice [5]; 93 mg/kg daily oral, 2 weeks): 54 ± 8 % of Control
- Glucose (db/db mice [5]; nonfasting, 93 mg/kg daily oral, 2 weeks): 372.0 ± 53.8 mg/dL
- Free Fatty Acids ± SEM (db/db mice [5]; [7]): 2867.4 ± 267.7 µM
- Triglycerides ± SEM (db/db mice [5]; [7]): 132.0 ± 15.2 mg/dL

SMILES: O=C(O)Cc1ccccc1 [Phenylacetate, reference compound]
- Glucose mg/dL (±SEM) (db/db mice [6]): 661 ± 64 mg/dL
- Triglycerides (db/db mice [6]): 171 ± 33 mg/dL
